In ChEMBL document CHEMBL4651402, “Screening of ~5500 FDA-approved drugs and clinical candidates for anti-SARS-CoV-2 activity” (2021):

Test system: SARS-CoV-2
Assay: microbe, parasite or virus in culture
Details: Severe acute respiratory syndrome coronavirus 2, Vero C1008, 48 h

Row | Compound | IC50 [µM] | IC50 (read-out: pIC50 (converted)) [µM]
1 | Cc1c(-c2ccccc2)oc2c(C(=O)OCCN3CCCCC3)cccc2c1=O [FLAVOXATE] | > 20 | > 20
2 | CCOC(=O)CN1CCN(C(=O)C=Cc2cc(OC)c(OC)c(OC)c2)CC1 | > 20 | > 20
3 | O=C1CCCN1CC#CCN1CCCC1 [OXOTREMORINE] | > 20 | > 20
4 | CC12CCC3C(CC=C4CC(OS(=O)(=O)O)CCC43C)C1CCC2=O (stereo not drawn) | > 20 | > 20
5 | O[C@@H]1[C@@H](O)[C@@H](O)CN2CC[C@@H](O)[C@H]12 | > 20 | > 20
6 | C1=N/C2=N/c3ccc(OCCN4CCCC4)c(c3)COC/C=C/COCc3cccc(c3)C(=C1)N2 [PACRITINIB] | > 20 | > 20
7 | O=C1N[11C](=O)C(c2ccccc2)(c2ccccc2)N1 | > 20 | > 20
8 | c1ccc(CNc2ncnc3[nH]cnc23)cc1 [6-BENZYLAMINOPURINE] | > 20 | > 20
9 | O=C(/N=C(/Nc1cc(F)cc(Cl)c1)Nc1cc(C(F)(F)F)[nH]n1)c1cccc(Cl)c1 | > 20 | > 20
10 | C=CCn1c(=O)n(C2OC(CO)C(O)C2O)c2nc(N)[nH]c(=O)c21 (stereo not drawn) | > 20 | > 20
11 | CN1C(=O)CN=C(c2ccccc2F)c2cc([N+](=O)[O-])ccc21 [FLUNITRAZEPAM] | > 20 | > 20
12 | C[C@@H]1c2nnn(-c3ncc(F)cn3)c2CCN1C(=O)c1cccc(C(F)(F)F)c1Cl [JNJ-54175446] | > 20 | > 20
13 | CN1[C@@H]2CC[C@H]1CC(O)C2 (stereo partly drawn) | > 20 | > 20
14 | Cc1c(Cn2ccnc2)c2ccccc2n1CCC(=O)O [DAZMEGREL] | > 20 | > 20
15 | CCc1cnn2c(NCc3ccc[n+]([O-])c3)cc(N3CCCC[C@H]3CCO)nc12 [DINACICLIB] | > 20 | > 20
16 | COC1C(C)OC(OC2C=C3CCC4C(CCC5(C)C(c6ccc(=O)oc6)CCC45O)C3(C)CC2)C(O)C1O (stereo not drawn) | > 20 | > 20
17 | C[C@@](O)(COc1ccc(C#N)cc1)C(=O)Nc1ccc(C#N)c(C(F)(F)F)c1 | > 20 | > 20
18 | COc1cc(C(=O)Nc2ccccc2CCC2CCCCN2C)ccc1O (stereo not drawn) [MODECAINIDE] | > 20 | > 20
19 | COc1cccc(-c2ccc(NC(=O)C3=C(C(=O)O)CCC3)c(F)c2)c1 [VIDOFLUDIMUS] | > 20 | > 20
20 | Clc1ccc(C(Cn2ccnc2)OCc2ccc(Sc3ccccc3)cc2)c(Cl)c1 (stereo not drawn) [FENTICONAZOLE] | > 20 | > 20
21 | Cc1nccn1Cc1cc(-c2ccc(F)c(C(F)F)c2)cnn1 [EVT-101 FREE BASE] | > 20 | > 20
22 | Nc1nc(NC2CC2)c2ncn([C@H]3C=C[C@@H](CO)C3)c2n1 [ABACAVIR] | > 20 | > 20
23 | O=C1Nc2ccc(I)cc2/C1=C/c1cc(Br)c(O)c(Br)c1 | > 20 | > 20
24 | NC(=O)NC(=O)Cc1ccccc1 [PHENACEMIDE] | > 20 | > 20
25 | C1COC(NC(C2CC2)C2CC2)=N1 [RILMENIDINE] | > 20 | > 20

Row | Compound | IC50 [µM] | IC50 (read-out: pIC50 (converted)) [µM]
26 | C=C1[C@H](n2ccc(N)nc2=O)O[C@H](CO)[C@H]1O | > 20 | > 20
27 | C[N+]1(C)CCN(CC(O)(c2ccccc2)C2CCCCC2)CC1 (stereo not drawn) [HEXOCYCLIUM] | > 20 | > 20
28 | COc1ccccc1OCC(O)CNC(C)C (stereo not drawn) [MOPROLOL] | > 20 | > 20
29 | CC(=O)OC1C[C@@]2(C)[C@@H](C[C@@H](O)C3[C@]2(C)CC[C@H]2[C@H](C)[C@H](O)CC[C@]32C)/C1=C(\CCC=C(C)C)C(=O)O (stereo partly drawn) | > 20 | > 20
30 | O=C(c1ccccc1)c1ccc2n1CCC2C(=O)O (stereo not drawn) [KETOROLAC] | > 20 | > 20
31 | COc1cccc(-c2cc(=O)c3ccccc3o2)c1N | > 20 | > 20
32 | CC12CCC(=O)C=C1CCC1C2CCC2(C)C1CC[C@H]2O (stereo partly drawn) | > 20 | > 20
33 | Nc1ccc(S(=O)(=O)c2ccc(N)cc2)cc1 [DAPSONE] | > 20 | > 20
34 | CC(=O)[C@H]1CC[C@H]2[C@@H]3CC=C4C[C@@H](O)CC[C@]4(C)[C@H]3CC[C@]12C [PREGNENOLONE] | > 20 | > 20
35 | C[C@@H](O)[C@H]1C(=O)N2C(C(=O)O)=C(SCCNC=N)C[C@H]12 [IMIPENEM ANHYDROUS] | > 20 | > 20
36 | COc1ccc2c3c1O[C@H]1[C@@H](O)C=C[C@H]4[C@@H](C2)[N@+](C)([O-])CC[C@@]341 | > 20 | > 20
37 | Clc1ccc(C(Cn2ccnc2)OCc2ccsc2Cl)c(Cl)c1 (stereo not drawn) [TIOCONAZOLE] | > 20 | > 20
38 | COc1ccccc1OCC(O)CN1CCN(CC(=O)Nc2c(C)cccc2C)CC1 (stereo not drawn) [RANOLAZINE] | > 20 | > 20
39 | COC1=CC(=O)C[C@@H](C)[C@]12Oc1c(Cl)c(OC)cc(OC)c1C2=O [GRISEOFULVIN] | > 20 | > 20
40 | CCN(CC)CCOCCOC(=O)C1(c2ccccc2)CCCC1 [CARBETAPENTANE] | > 20 | > 20
41 | O=C(O)c1cn(-c2ccc(F)cc2)c2cc(N3CCNCC3)c(F)cc2c1=O [SARAFLOXACIN] | > 20 | > 20
42 | CC(=O)O[C@@H]1CCC2C3CCc4cc(O)ccc4C3CCC21C (stereo partly drawn) | > 20 | > 20
43 | CCOc1ccc(NC(C)=O)cc1 [PHENACETIN] | > 20 | > 20
44 | CC1(C)CC23C(=O)CCC(O)C2(C)CCC13 (stereo not drawn) [3-NOR-3-OXOPANASINSAN-6-OL] | > 20 | > 20
45 | O=C(N[C@H]1CCS[C@H]2CCC[C@@H](C(=O)O)N2C1=O)[C@@H](S)Cc1ccccc1 [OMAPATRILAT] | > 20 | > 20
46 | COc1cccc(-c2cc(F)c(Nc3ncccc3C(=O)O)c(F)c2)c1 [ASLAN-003] | > 20 | > 20
47 | Cc1cccc(OCC(O)CNC(C)C)c1 (stereo not drawn) [TOLIPROLOL] | > 20 | > 20
48 | CCCCS(=N)(=O)CCC(N)C(=O)O (stereo not drawn) [BUTHIONINE SULFOXIMINE] | > 20 | > 20
49 | NCc1ccc2c(c1)nc(CN1C(=O)C3(CC3)c3ccc(F)cc31)n2CCCC(F)(F)F [SISUNATOVIR] | > 20 | > 20
50 | COc1ccc2c(c1)[nH]c1c(C)nccc12 [HARMINE] | > 20 | > 20

Row | Compound | IC50 [µM] | IC50 (read-out: pIC50 (converted)) [µM]
51 | CN1CCc2cccc3c2[C@H]1Cc1ccc(O)c(O)c1-3 [APOMORPHINE] | > 20 | > 20
52 | C=CC(=O)N1C[C@H](Nc2ncnc3[nH]ccc23)CC[C@@H]1C [RITLECITINIB] | > 20 | > 20
53 | CCCCCN(CCCOC)C(=O)C(CCC(=O)O)NC(=O)c1ccc(Cl)c(Cl)c1 (stereo not drawn) [LOXIGLUMIDE] | > 20 | > 20
54 | CC1(C)Oc2ccc(OC(F)(F)F)cc2[C@@H](N2Cc3ccccc3C2=O)C1O (stereo partly drawn) | > 20 | > 20
55 | Cc1cc(C2CCCCC2)n(O)c(=O)c1 [CICLOPIROX] | > 20 | > 20
56 | CCS(=O)(=O)CCn1c([N+](=O)[O-])cnc1C [TINIDAZOLE] | > 20 | > 20
57 | O=C(CCCl)NCc1ccccc1 [BECLAMIDE] | > 20 | > 20
58 | CCN(CC)CC#CCOC(=O)C(O)(c1ccccc1)C1CCCCC1 (stereo not drawn) [OXYBUTYNIN] | > 20 | > 20
59 | N=C(N)NCc1cccc(I)c1 [IOBENGUANE] | > 20 | > 20
60 | CC1CCc2c(N3CCC(O)CC3)c(F)cc3c(=O)c(C(=O)O)cn1c23 (stereo not drawn) [NADIFLOXACIN] | > 20 | > 20
61 | CN(N=O)C(=O)N[C@@H](C=O)[C@@H](O)[C@H](O)[C@H](O)CO.CN(N=O)C(=O)N[C@H]1C(O)O[C@H](CO)[C@@H](O)[C@@H]1O | > 20 | > 20
62 | CN1CCN(C2=Nc3cscc3/C(=C/C#N)c3cscc32)CC1 [TENILAPINE] | > 20 | > 20
63 | C=C(CC)C(=O)c1ccc(OCC(=O)O)c(Cl)c1Cl [ETHACRYNIC ACID] | > 20 | > 20
64 | CC[C@@H](C)C(=O)O[C@H]1[C@H](O)[C@H]2[C@@H](CN3C[C@@H](C)CC[C@H]3[C@@]2(C)O)[C@@H]2C[C@]34O[C@@]5(O)[C@@H](OC(=O)[C@](C)(O)CC)CC[C@@]3(C)[C@@H]5[C@@H](OC(C)=O)[C@@H](OC(C)=O)[C@H]4[C@@]21O | > 20 | > 20
65 | C[C@@H]1CCN(C(=O)CC#N)C[C@@H]1N(C)c1ncnc2[nH]ccc12 [TOFACITINIB] | > 20 | > 20
66 | NC(=O)c1ccc[n+]([C@@H]2O[C@H](CO)[C@@H](O)[C@H]2O)c1 [NICOTINAMIDE RIBOSIDE] | > 20 | > 20
67 | NC1CCN(c2c(F)cc3c(=O)c(C(=O)O)cn(C4CC4)c3c2Cl)C1 (stereo not drawn) [CLINAFLOXACIN] | > 20 | > 20
68 | CCOc1ccc2ccccc2c1C(=O)N[C@@H]1C(=O)N2[C@@H]1SC(C)(C)[C@@H]2C(=O)O [NAFCILLIN] | > 20 | > 20
69 | C=CC1=C(C)/C(=C/c2[nH]c(Cc3[nH]c(/C=C4\NC(=O)C(C)=C4C=C)c(C)c3CCC(=O)O)c(CCC(=O)O)c2C)NC1=O [BILIRUBIN] | > 20 | > 20
70 | COc1ccccc1[C@H](Cn1c(=O)n(C(C)(C)C(=O)O)c(=O)c2c(C)c(-c3ncco3)sc21)OC1CCOCC1 [FIRSOCOSTAT] | > 20 | > 20
71 | CN(C)CCCN1c2ccccc2CCc2ccc(C#N)cc21 [CIANOPRAMINE] | > 20 | > 20
72 | Cc1cc(OCCCS(C)(=O)=O)cc(C)c1-c1cccc(COc2ccc3c(c2)OC[C@@H]3CC(=O)O)c1 | > 20 | > 20
73 | Cc1cccc(C)c1NC(=O)CN1CCCC1 [PYRROCAINE] | > 20 | > 20
74 | CN1C(=N)N(c2ccccc2)CC1=O [AZOLIMINE] | > 20 | > 20
